The values below come from PubChem BioAssay (NCI).

The structures appear in SMILES notation.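 48-hour exposure; five concentrations; linearly interpolated endpoints. TGI is the concentration that stops growth completely.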

Some test systems named below: SW-620 colon; HCT-116 colon; NCI-H460 lung; SNB-19 CNS; KM12 colon; NCI-H226 lung; UACC-62 melanoma; MCF7 breast; MDA-N; PC-3 prostate; CAKI-1 renal; MOLT-4 leukemia; SNB-75 CNS; HCC-2998 colon; SF-268 CNS; NCI/ADR-RES ovarian; NCI-H23 lung; CCRF-CEM leukemia; RXF 393 renal; SF-539 CNS.
What all share (test): inhibition of tumour cell growth, NCI panel, 48 h

As to `CCCCCCCCCCCCC/C=C/[C@@H](O)[C@H](COC1OC(CO)C(OC2OC(CO)C(O)C(OC3(C(=O)O)CC(O)C(NC(C)=O)C(C(O)C(O)CO)O3)C2O)C(O)C1O)N=[N+]=[N-]` (stereo not given in full), the TGI was 61.7 µM in the assay on SW-620 colon; greater than 100 µM in the assay on HCT-116 colon; greater than 100 µM with NCI-H460 lung; 93.7 µM with SNB-19 CNS; 34.1 µM in the assay with KM12 colon; 45.9 µM in the assay with NCI-H226 lung. The TGI was 37.1 µM with UACC-62 melanoma; greater than 100 µM in the assay on MCF7 breast; greater than 100 µM with MDA-N; 59.4 µM in the assay on PC-3 prostate; greater than 100 µM with CAKI-1 renal; 43.4 µM in the assay with MOLT-4 leukemia. The TGI with SNB-75 CNS is 37.1 µM; in the assay on HCC-2998 colon it was greater than 100 µM; with SF-268 CNS, 41.3 µM; in the assay with NCI/ADR-RES ovarian, 59.9 µM; in the assay on NCI-H23 lung, greater than 100 µM; with CCRF-CEM leukemia, 43.4 µM. For the same compound, the TGI in the assay with RXF 393 renal was determined as 48.8 µM; with SF-539 CNS it was 31.9 µM.

As to `CCOC(=O)/C=C/[C@H](O[Si](CC)(CC)CC)C(C)(C)C`, the TGI in the assay with SW-620 colon, with HCT-116 colon, in the assay on NCI-H460 lung, in the assay on SNB-19 CNS, with KM12 colon and with NCI-H226 lung was greater than 100 µM throughout. For the same compound, the TGI is greater than 100 µM in the assay with UACC-62 melanoma; 66.9 µM with MCF7 breast; greater than 100 µM with MDA-N; greater than 100 µM in the assay with PC-3 prostate; greater than 100 µM in the assay with CAKI-1 renal; greater than 100 µM in the assay on MOLT-4 leukemia. The TGI was greater than 100 µM in the assay on SNB-75 CNS; greater than 100 µM in the assay on HCC-2998 colon; greater than 100 µM in the assay with SF-268 CNS; greater than 100 µM in the assay with NCI/ADR-RES ovarian; greater than 100 µM in the assay with NCI-H23 lung; 48.6 µM with CCRF-CEM leukemia. Moreover, the TGI in the assay with RXF 393 renal and in the assay on SF-539 CNS was greater than 100 µM throughout.

Turning to `CC(CO)CCNc1ncnc2c1ncn2CCC(=O)OC(C)(C)C` (stereo not given), the TGI in the assay with SW-620 colon, in the assay on HCT-116 colon, in the assay on NCI-H460 lung, in the assay with SNB-19 CNS, in the assay with KM12 colon and with NCI-H226 lung was greater than 100 µM throughout. In addition, the TGI with UACC-62 melanoma, with MCF7 breast, in the assay with MDA-N, in the assay with PC-3 prostate, in the assay on CAKI-1 renal and in the assay on MOLT-4 leukemia was greater than 100 µM throughout. For the same compound, the TGI in the assay on SNB-75 CNS, in the assay with HCC-2998 colon, with SF-268 CNS, in the assay on NCI/ADR-RES ovarian, with NCI-H23 lung and with CCRF-CEM leukemia was greater than 100 µM throughout. Moreover, the TGI with RXF 393 renal and with SF-539 CNS was greater than 100 µM in each case.

As to `Cc1cc(C2CC(O)C(CO)O2)c(F)cc1F` (stereo not given), the TGI in the assay with SW-620 colon, in the assay on HCT-116 colon, in the assay with NCI-H460 lung, in the assay on SNB-19 CNS, in the assay on KM12 colon and in the assay with NCI-H226 lung was greater than 100 µM each time. The TGI in the assay on UACC-62 melanoma, with MCF7 breast, with MDA-N, in the assay with PC-3 prostate, in the assay with CAKI-1 renal and in the assay on MOLT-4 leukemia was greater than 100 µM each time. Also, the TGI in the assay on SNB-75 CNS, in the assay on HCC-2998 colon, in the assay with SF-268 CNS, in the assay with NCI/ADR-RES ovarian, with NCI-H23 lung and in the assay with CCRF-CEM leukemia was greater than 100 µM throughout. The TGI in the assay on RXF 393 renal and in the assay on SF-539 CNS was greater than 100 µM each time.

Take `O=C(Oc1cccnc1)c1cc2cc(CCl)ccc2oc1=O`: the TGI was greater than 100 µM in the assay on SW-620 colon; 38.7 µM in the assay on HCT-116 colon; greater than 100 µM in the assay with NCI-H460 lung; greater than 100 µM with SNB-19 CNS; greater than 100 µM in the assay on KM12 colon; greater than 100 µM in the assay on NCI-H226 lung. Moreover, the TGI in the assay on UACC-62 melanoma was 36.9 µM; in the assay on MCF7 breast it was 11.3 µM; in the assay with MDA-N, greater than 100 µM; in the assay with PC-3 prostate, 32.9 µM; in the assay with CAKI-1 renal, 35 µM; in the assay with MOLT-4 leukemia, 61.4 µM. Moreover, the TGI in the assay with SNB-75 CNS is 79.7 µM; with HCC-2998 colon, greater than 100 µM; in the assay with SF-268 CNS, 45.3 µM; with NCI/ADR-RES ovarian, 76.6 µM; in the assay with NCI-H23 lung it was 39.5 µM; in the assay on CCRF-CEM leukemia it was greater than 100 µM. The results for the TGI with RXF 393 renal and with SF-539 CNS were 31.5 µM and greater than 100 µM, respectively.

Consider `O=C(/C=C/c1ccc(OCc2cccc(Cl)c2)cc1)NO`, for which the TGI is greater than 100 µM in the assay with SW-620 colon; 25.8 µM with HCT-116 colon; 41.9 µM in the assay on NCI-H460 lung; 60.7 µM with SNB-19 CNS; 43 µM in the assay with KM12 colon; 35.6 µM with NCI-H226 lung. The TGI is 27.9 µM in the assay on UACC-62 melanoma; greater than 100 µM in the assay with MCF7 breast; 44.5 µM with MDA-N; 47.4 µM in the assay with PC-3 prostate; 34.2 µM in the assay with CAKI-1 renal; 18 µM with MOLT-4 leukemia. Moreover, the TGI in the assay on SNB-75 CNS was greater than 100 µM; in the assay on HCC-2998 colon, 31 µM; in the assay on SF-268 CNS, greater than 100 µM; in the assay with NCI/ADR-RES ovarian it was 23.3 µM; in the assay on NCI-H23 lung, 26 µM; in the assay with CCRF-CEM leukemia, 26.6 µM. In addition, the TGI with RXF 393 renal was 42.4 µM; in the assay with SF-539 CNS, greater than 100 µM.
